Key:
Nox1 = assay: Nuclear localization of Nox1-EGFP in N27 cells (confocal microscopy); assay type: cell-based, rat; conditions: N27 cells expressing Nox1-EGFP; 6-OHDA 50 μM 6 h, rotenone 5 μM 18 h
Text: The observation that Nox1 was induced by a variety of oxidative stimuli in vitro led one to test Nox1 expression in the rat substantia nigra DA (SNDA) neurons administered with 6-OHDA. […] Neither astrocytes nor microglia expressed Nox1, as verified by co-immunostaining of Nox1 with GFAP (astrocytes) or CD11b (microglia) (FIG. 3B). Increased Nox1 transcript was found in the SN as shown by in situ hybridization (FIG. 3C). […] As early as 3 days post 6-OHDA injection, Nox1 expression was increased in the nucleus and in the cytoplasm of DA neurons (FIG. 4A). […] Nuclear expression of the Nox1/Rac1 complex was further analyzed in N27 cells after treatment with 6-OHDA. First, activated Rac1 was detected by immunoprecipitation of nuclear extracts of N27 cells after a 24 h treatment with 6-OHDA. […] Next, it was established that N27 cells stably expressing Nox1 tagged with EGFP at the C-terminus. […] To examine whether nuclear translocation of Nox1 in dopaminergic cells is observed under different conditions that cause dopaminergic neuronal death, mitochondrial respiratory complex inhibitor, rotenone, was tested.

DA neurons in the rat SN = assay: 8-oxo-dG immunostaining in the SN of 6-OHDA-treated rats; assay type: in vivo; conditions: striatal injection
Experimental: The experiments were carried out on rats, in accordance with the NIH Guide for the Care and Use of Laboratory Animals. All procedures were approved by the local Animal Care and Use Committee. Female Sprague Dawley (SD) rats (Charles River; 8-weeks-old at the time of the beginning of AAV expression or 6-OHDA treatment, 2 or 3 per cage) were maintained in a temperature/humidity-controlled environment under a 12 h light/dark cycle with free access to food and water. All rats were respectively allocated into […], Nox1 shRNA/AAV, T17N Rac1/AAV, and scramble (scb) shRNA/AAV or empty vector/AAV as control groups. Rats were deeply anesthetized (ketamine and xylazine mixture 30 mg/kg, i.p.) and placed in a rat stereotaxic apparatus, a site in the right substantia nigra (SN) [coordinate: anteroposterior (AP), −5.3 mm; mediolateral (ML), +2.0 mm; dorsoventral (DV), −5.8 mm] was selected to inject scb shRNA/AAV (n=8), Nox1 shRNA/AAV (n=16), T17N Rac1/AAV (n=16), and empty vector/AAV (n=28), respectively, according to the grouping. […]
Rats were deeply anesthetized with sodium pentobarbital (120 mg/kg) and transcardially perfused with saline containing 0.5% sodium nitrite and 10 U/ml heparin sulfate, followed by 4% cold formaldehyde generated from paraformaldehyde in 0.1 M PBS (pH 7.2). […] Mounted slices were evaluated on light microscope.

NCCc1cc(O)c(O)cc1O [6-OHDA, 6-hydroxydopamine]
nuclear localization of Nox1 (Nox1): translocation of Nox1-EGFP into the nucleus | DNA oxidative damage (8-oxo-dG immunoreactivity in the nucleus) caused by toxin (DA neurons in the rat SN): increased DNA oxidative damage

From patent US9394544B2, “Ameliorating oxidative stress in neurodegenerative disease via Nox1 targeting” (University of Central Florida Research Foundation, Inc., priority 2013, dated 2016)
